Here are results for four compounds from article PMC12406681 (Antimicrobial Agents and Chemotherapy, 2025).

Data set [1] has as its system LACV. The data set is classed as cell-based, La Crosse virus.
Data set [2] concerns LACV passage control WT. Briefly: microbe, parasite or virus in culture. The data set is classed as cell-based. The following applies: La Crosse virus, Vero.
Data set [3] deals with LACV. Description: microbe, parasite or virus in culture. The data set is classed as cell-based, La Crosse virus.
Data set [4] can be described thus: Cell viability assay (MTT), uninfected SH-SY5Y cells. The data set is classed as cell-based. The conditions noted are these: human, MTT at 3 dpi, mean ± SD. Here is the method: (§1) CPE-based antiviral activity and cell viability assays were conducted as previously reported ([23]), with several modifications. Vero and SH-SY5Y cells were treated with serially diluted compounds in minimum essential medium (MEM) containing 2% FBS. In the antiviral evaluation, the cells were infected with LACV (40–80 plaque-forming unit [PFU]/well for Vero and 300–4,000 PFU/well for SH-SY5Y cells). In the cell viability assays, the cells treated with the compounds were cultured in the absence of viral infection. After 2 or 3 days of culture, the cells were stained with 3-(4,5-dimethylthiazol-2-yl)-2,5-diphenyltetrazolium bromide (MTT). The antiviral activity (50% effective concentration values, EC50) was calculated using Prism version 9.5.1 (GraphPad, La Jolla, CA, USA) using the four-parameter logistic method. Non-infected and non-treated cells were defined as the 100% inhibition control, while LACV-infected and non-treated cells were defined as the 0% inhibition control. Cell viability (50% cytotoxicity concentration values, CC50) was calculated using the MTT assay. Non-treated control cells were defined as the 100% cell viability control, while wells containing culture medium without cells were defined as the 0% cell viability control. Selective Index (SI50) was calculated as the ratio of CC50 to EC50 (CC50/EC50).

Data set [5] is described as follows: Cell viability assay (MTT), uninfected Vero cells. The data set is classed as cell-based. The following applies: African green monkey, mean ± SD. The protocol:
as §1

Data set [6] concerns LACV. Briefly: microbe, parasite or virus in culture. The data set is classed as cell-based, La Crosse virus. The source holds these as a separate data set.
For data set [7], the system named is CEN of orthobunyaviruses. The arrangement: method as in PMID 32766680, PMID 38656310. The conditions noted are these: cited from earlier work.
The format of data set [8] is in vivo. The conditions noted are these: uninfected mice; s.c. once daily for 7 days.
Data set [9] concerns Bunyaviruses, including LACV. The arrangement: method as in PMID 36037386. The conditions noted are these: cited from earlier work.
For data set [10], the system named is LACV passage control WT. Briefly: microbe, parasite or virus in culture. The data set is classed as cell-based. The conditions noted are these: La Crosse virus, SH-SY5Y.

Values joined by “and” are separate entries in the source; they are usually repeats but may differ in a detail not shown here. Equal entries are not always repeated. Where two headings read alike, the source gives them in different places.

The EC50 is the midpoint of the concentration-response curve. As a reminder, the CC50 is the concentration giving 50% cytotoxicity. A high value points to better tolerance by the cells. On to `NC(=O)c1nc(F)c[nH]c1=O` [T-705, favipiravir, reference compound], for which the “Viral RNA expression, entry-stage treatment” value in data set [1] is given as “no inhibitory effect”. Also, the EC50 in data set [2] is 43.8 ± 11.5 µM; in data set [3] (La Crosse virus, SH-SY5Y), greater than 100000 nM; in data set [6], 37.8 ± 3.96 µM; in [6] (La Crosse virus, Vero), 33.9 ± 5.29 µM. The compound also returned a 50% cytotoxic concentration (CC50) at 3 days in data set [4] greater than 200 µM. In addition, the CC50 in data set [5] stood at 117 ± 24.7 µM.

With `O=C1c2c(O)c(=O)ccn2N([C@@H]2c3ccccc3SCc3c2ccc(F)c3F)[C@@H]2COCCN12` [BXA, baloxavir acid], the “Binding to CEN and inhibition of enzymatic activity” value in [7] was “binds to the CEN of orthobunyaviruses and inhibits its enzymatic activity”.

In the case of `CC(C)N1CN(C2c3ccccc3CCc3ccccc32)n2cc(C(=O)O)c(=O)c(O)c2C1=O` [CAPCA-1, carbamoyl pyridone carboxylic acid (CAPCA)-1], the “Viral RNA expression, entry-stage treatment” value in data set [1] is “no inhibitory effect”. The half-maximal effective concentration (EC50) in data set [2] is 0.79 ± 0.39 µM; in [3] it was 690 nM and 950 nM; in data set [3] (La Crosse virus, SH-SY5Y), less than 1000 nM; in data set [10], 650 ± 50 nM. Also, the “Antiviral activity compared with other CEN inhibitors” value in data set [3] is “antiviral activity comparable to that of CAPCA-4 and demonstrated higher activity than CAPCA-2, -3, and -5”. Further, in data set [8], the “Body weight changes versus vehicle-treated mice” value is given as “No significant differences in body weight changes”. Also, the “Susceptibility of bunyaviruses among the four CEN inhibitors” value in data set [9] was “most susceptible to CAPCA-1”. This compound registered a CC50 at 3 days in data set [4] greater than 50 µM. This compound also returned a half-maximal cytotoxic concentration (CC50) in [5] greater than 50 µM. For the same compound, the “EC50 lower than for T-705 and RBV” value in data set [6] was “more than 50 fold”. Further, the “Inhibition of LACV-induced cell death compared with other CEN inhibitors” value in [6] was “inhibited LACV-induced cell death at lower concentrations than the other CEN inhibitors”.

`NC(=O)c1ncn([C@@H]2O[C@H](CO)[C@@H](O)[C@H]2O)n1` [RBV, Ribavirin, reference compound]: the concentration giving a half-maximal response (EC50) in data set [3] (La Crosse virus, SH-SY5Y) is greater than 100000 nM; in data set [6] (La Crosse virus, Vero) it was greater than 100 µM. Besides, it took 121 ± 7.61 µM to reach half-maximal cytotoxicity in data set [4] (CC50 at 3 days). This compound also yielded a CC50 in data set [5] of 82.1 ± 28.4 µM.
